The text below walks through data of PubChem BioAssay (NCI).

Among the test systems are T-47D breast; SN12C renal; HOP-92 NSCLC; SK-MEL-5 melanoma; M14 melanoma; NCI-H226 lung; NCI-H460 lung; OVCAR-3 ovarian; EKVX NSCLC; SF-268 CNS.
Common to all, as to test: DTP human tumour cell line panel, 48 h

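Results reflect a 48-hour exposure of cells in 96-well plates to compound at five concentrations. The concentration for 50% growth inhibition is given as GI50. TGI is the concentration that stops growth completely.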

For `Cc1ccc(/C=C2/SC(Nc3nc(-c4csc(NC5=NC(=O)/C(=C\c6ccc(C)cc6)S5)n4)cs3)=NC2=O)cc1`, the GI50 (usually the concentration at which growth is held to half of that of the control) in the assay on T-47D breast was 35.3 µM; with SN12C renal, 5.54 µM; in the assay with HOP-92 NSCLC, 7.03 µM; with SK-MEL-5 melanoma it was 0.0217 µM; in the assay on M14 melanoma, 1.31 µM; in the assay with NCI-H226 lung it was 1.58 µM. Moreover, the GI50 was 4.36 µM in the assay on NCI-H460 lung, 3.28 µM in the assay with OVCAR-3 ovarian, 14.9 µM in the assay with EKVX NSCLC and 8.98 µM with SF-268 CNS. Further, the concentration for total growth inhibition (TGI) (usually the concentration at which net growth stops) was more than 50 µM with T-47D breast; more than 50 µM in the assay with SN12C renal; 24.5 µM in the assay on HOP-92 NSCLC; 1.4 µM in the assay with SK-MEL-5 melanoma; 7.74 µM in the assay with M14 melanoma; 28 µM with NCI-H226 lung. For the same compound, the TGI in the assay with NCI-H460 lung was more than 50 µM; with OVCAR-3 ovarian it was 33.9 µM; with EKVX NSCLC, more than 50 µM; in the assay with SF-268 CNS, more than 50 µM.

Turning to `O=C(/C=C/c1cccnc1)NCCCCC1CCCN(C(=O)c2ccccc2)C1` (stereo not given), the GI50 with T-47D breast was less than 0.01 µM; in the assay on SN12C renal, less than 0.01 µM; with HOP-92 NSCLC it was more than 100 µM; with SK-MEL-5 melanoma, less than 0.0273 µM; in the assay with M14 melanoma, less than 0.01 µM; in the assay with NCI-H226 lung, more than 79.5 µM. The GI50 in the assay on NCI-H460 lung was 0.0227 µM; in the assay on OVCAR-3 ovarian, more than 47.9 µM; in the assay with EKVX NSCLC, more than 63.1 µM; in the assay on SF-268 CNS it was more than 28.4 µM. Further, the TGI with T-47D breast, in the assay with SN12C renal, in the assay with HOP-92 NSCLC, in the assay on SK-MEL-5 melanoma, with M14 melanoma and in the assay on NCI-H226 lung was more than 100 µM each time. Besides, the TGI in the assay on NCI-H460 lung, with OVCAR-3 ovarian, with EKVX NSCLC and in the assay with SF-268 CNS was more than 100 µM each time.

With `Cc1ccccc1N=Nc1ccc(NC(=O)c2ccnn2C)c(C)c1`, the GI50 in the assay on T-47D breast is 9.9 µM; with SN12C renal it was 97.1 µM; with HOP-92 NSCLC, 6.99 µM; in the assay with SK-MEL-5 melanoma, 4.99 µM; with M14 melanoma, 32.4 µM; in the assay with NCI-H226 lung, 15 µM. Moreover, the GI50 is 26.5 µM in the assay with NCI-H460 lung, more than 100 µM with OVCAR-3 ovarian, 7.72 µM in the assay with EKVX NSCLC and 31.7 µM in the assay with SF-268 CNS. Further, the TGI is more than 100 µM in the assay with T-47D breast; more than 100 µM in the assay on SN12C renal; 34.9 µM in the assay on HOP-92 NSCLC; 72.2 µM in the assay on SK-MEL-5 melanoma; more than 100 µM in the assay on M14 melanoma; 89.6 µM with NCI-H226 lung. The total growth inhibition concentration (TGI) in the assay with NCI-H460 lung, with OVCAR-3 ovarian, in the assay on EKVX NSCLC and with SF-268 CNS was more than 100 µM throughout.

With `O=C(CN1CCN(CCCOc2c(-c3ccccc3)oc3ccccc3c2=O)CC1)Nc1ccc(Cl)cc1C(=O)c1ccccc1Cl`, the GI50 with T-47D breast is 6.7 µM; with SN12C renal, 4.98 µM; in the assay on HOP-92 NSCLC, 1.05 µM; with SK-MEL-5 melanoma, 5.93 µM; in the assay on M14 melanoma it was 2.01 µM; with NCI-H226 lung, 13.9 µM. Further, the GI50 with NCI-H460 lung was 3.64 µM; in the assay with OVCAR-3 ovarian it was 5.79 µM; in the assay with EKVX NSCLC, 22.7 µM; in the assay with SF-268 CNS, 23.2 µM. Moreover, the TGI with T-47D breast worked out at 33.9 µM; in the assay with SN12C renal, 18 µM; with HOP-92 NSCLC, 6.6 µM; in the assay with SK-MEL-5 melanoma, 25.2 µM; in the assay with M14 melanoma it was 4.51 µM; in the assay on NCI-H226 lung, 40.2 µM. Moreover, the TGI was more than 100 µM in the assay with NCI-H460 lung, 19.5 µM in the assay with OVCAR-3 ovarian, more than 100 µM in the assay on EKVX NSCLC and more than 100 µM with SF-268 CNS.

As for `Nc1c(Br)cc(Br)c2c1[nH]c(=O)c1ccccc12`, the GI50 is 2.41 µM with T-47D breast; 8.09 µM with SN12C renal; 1.96 µM with HOP-92 NSCLC; 34 µM in the assay on SK-MEL-5 melanoma; 9.89 µM in the assay on M14 melanoma; 2.75 µM in the assay with NCI-H226 lung. In addition, the GI50 was 3.33 µM in the assay with NCI-H460 lung, 11.5 µM in the assay with OVCAR-3 ovarian, 1.36 µM with EKVX NSCLC and 9.72 µM in the assay with SF-268 CNS. Besides, the TGI was 17.5 µM in the assay on T-47D breast; more than 100 µM in the assay with SN12C renal; 8.57 µM with HOP-92 NSCLC; more than 100 µM in the assay on SK-MEL-5 melanoma; more than 100 µM in the assay on M14 melanoma; 12.7 µM in the assay with NCI-H226 lung. Also, the concentration for total growth inhibition (TGI) in the assay with NCI-H460 lung was 14.6 µM; with OVCAR-3 ovarian, 43.4 µM; in the assay with EKVX NSCLC, 11.1 µM; in the assay on SF-268 CNS, more than 69.3 µM.

Regarding `CCC(CO)Nc1nc(NCc2ccccc2O)c2ncn(C(C)C)c2n1` (stereo not given), the GI50 is 5.07 µM in the assay with T-47D breast; 2.77 µM in the assay on SN12C renal; 4.97 µM in the assay with HOP-92 NSCLC; 2.54 µM in the assay with SK-MEL-5 melanoma; 4.77 µM with M14 melanoma; 8.95 µM in the assay with NCI-H226 lung. Besides, the GI50 in the assay on NCI-H460 lung is 2.45 µM; in the assay on OVCAR-3 ovarian, 3.1 µM; in the assay on EKVX NSCLC it was 15.2 µM; with SF-268 CNS, 2.55 µM. The TGI stood at 32.8 µM in the assay with T-47D breast; 37.5 µM in the assay with SN12C renal; 26.2 µM with HOP-92 NSCLC; 11.9 µM with SK-MEL-5 melanoma; 18.8 µM in the assay on M14 melanoma; 50.8 µM in the assay with NCI-H226 lung. Besides, the concentration for total growth inhibition (TGI) was 11.8 µM with NCI-H460 lung, 19.8 µM in the assay on OVCAR-3 ovarian, more than 100 µM with EKVX NSCLC and 13 µM with SF-268 CNS.

In the case of `CCCc1cc2c(=O)c(C(=O)OC)c[nH]c2cc1N(CC)CC`, the GI50 is 53 µM in the assay with T-47D breast; 41.2 µM in the assay with SN12C renal; 19.2 µM with HOP-92 NSCLC; 31.9 µM in the assay on SK-MEL-5 melanoma; 57 µM in the assay on M14 melanoma; 34.6 µM in the assay on NCI-H226 lung. The GI50 in the assay on NCI-H460 lung was 31.6 µM; in the assay with OVCAR-3 ovarian it was 16.4 µM; with EKVX NSCLC it was 16.9 µM; in the assay with SF-268 CNS it was 28.6 µM. Moreover, the TGI is more than 100 µM with T-47D breast; more than 100 µM in the assay with SN12C renal; 52.7 µM with HOP-92 NSCLC; more than 100 µM with SK-MEL-5 melanoma; more than 100 µM in the assay on M14 melanoma; more than 100 µM in the assay on NCI-H226 lung. Further, the TGI with NCI-H460 lung is more than 100 µM; in the assay with OVCAR-3 ovarian it was 38.3 µM; with EKVX NSCLC it was 42.7 µM; in the assay on SF-268 CNS, 87.6 µM.
